Experimental data from patent US20160250245A1, “Methods and Pharmaceutical Composition for the Treatment of Polyomavirus Infections” (INSERM (INSTITUT NATIONAL DE LA SANTÉ ET DE LA RECHERCHE …, priority 2013, published 2016).

Tests used:
[1] = tested on: BKV (Dunlop strain); experiment: BKV replication in RPTEC primary cells, extracellular BKV DNA load by qPCR; format: cell-based, BK virus
Protocol: (§1) For each assay, one cell aliquot containing 2×10^6 cells was thawed and cells were cultured for six days in one 75 cm^2 culture flask. Cells were then trypsinized, washed, resuspended and seeded at 5×10^4 cells/well in 1 ml medium in flat bottom 24-well collagen-coated microplates. After 48 h incubation, medium was replaced with fresh REBM base medium without grown factors and supplemented with inactivated fetal bovine serum (FBS Brazilian origin, Lonza) and penicillin-streptomycin 10000 U/μg to a final concentration of 2% and 1% respectively. 48 h later, cells at 95% confluence were infected with 1×10^9 genomes per well. After 4 h incubation (37° C., 5% CO2), medium was removed and replaced with 1 ml of fresh medium without grown factors after two washes with and without gemcitabine or cidofovir at the indicated concentrations. 72 h later, at day 3 of treatment, supernatants were harvested and frozen at −80° C. and medium was replaced with fresh medium without grown factors and with the indicated concentrations of gemcitabine or cidofovir. After 48 h incubation, at day 5 of treatment, cell culture supernatants were harvested and frozen at −80° C.
(§2) Extracellular DNA was extracted from 100 μL frozen supernatants using the automated nucleic acids extractor Nuclisens Easymag (BioMérieux, Marcy l'Etoile, France) following the manufacturer's Generic 2.0.1 procedure. Extracts were resuspended in a final volume of 25 μL buffer 3.
(§3) To quantify extracellular BKV DNA load, a quantitative PCR (qPCR) was done using the following primers (Eurofins MWG Operon) and probe (Applied Biosystem, UK): […]
(§4) Reactions were performed in a total volume of 25 μl with 5 μL of DNA extract, […] TaqMan Universal PCR Master Mix (Applied Biosystems, Hoffmann La Roche, Meylan, France), 6.5 μL H2O, 2.5 μL of each primer at 30 μM and 1 μL of probe at 10 μM.
(§5) Amplification was performed using the Rotor-Gene 6000 (Corbett Life Science) with the following PCR program: 50° C., 2 min; denaturation at 95° C., 10 min; and 45 cycles of 95° C., 15 sec; 60° C., 60 sec. Quantification was calculated with an external calibration curve using BKV plasmid constructs.

[2] = tested on: BKV (Dunlop); experiment: BKV replication in Vero cell line, extracellular BKV DNA load by qPCR; format: cell-based, BK virus; conditions: Vero cells
Protocol: (§6) For each assay, one cell aliquot was thawed and cells cultured for three days in one 25 cm^2 culture flask. Cells were then trypsinized, washed, resuspended and seeded at 1×10^4 cells/well in […] in flat bottom 96-well microplates. After 24 h incubation, cells at 75% confluence were infected with 1×10^9 genomes per well in BK medium (199 medium with 2% FBS, 2% HEPES, 1% penicillin-streptomycin 10000 U/μg final concentration). After 4 h incubation (37° C., 5% CO2), medium was removed and replaced with 200 μL of fresh BK medium after four washes. 72 h later, medium was replaced with fresh BK medium with or without gemcitabine at the indicated final concentrations. After 48 h incubation, cell culture supernatants were harvested and frozen at −80° C.
as §2, §3, §4, §5

[3] = tested on: Vero cell line; format: cell-based, Cercopithecus aethiops; conditions: Vero cell culture system
Protocol: as §6
(§7) Cytotoxicity was analyzed by two colorimetric assays using the “Cytotoxicity Detection Kit (LDH)” and “Cell proliferation ELISA, BrdU” (Roche Diagnostics, Meylan, France).
The quantity of LDH was measured in cell culture supernatants and cells from every wells used for the quantification of virus replication including infected and non-infected wells and in presence or not of gemcitabine at the end of the test period according to the manufacturer's protocol. Absorbance at 492 nm (sample) and at 620 nm (background) was recorded 30 min after addition of the reaction mixture. Medium alone served as blank. […]

[4] = tested on: VP-1; experiment: Immunofluorescence of VP-1 expression in infected RPTEC cells; format: cell-based, BK virus; conditions: 5 days of treatment
Protocol: (§8) For each assay, one cell aliquot containing 2×10^6 cells was thawed and cells were cultured for six days in one 75 cm^2 culture flask. Cells were then trypsinized, washed, resuspended and seeded at 5×10^4 cells/well in 1 ml medium in flat bottom 24-well collagen-coated microplates. After 48 h incubation, medium was replaced with fresh REBM base medium without grown factors and supplemented with inactivated fetal bovine serum (FBS Brazilian origin, Lonza) and penicillin-streptomycin 10000 U/μg to a final concentration of 2% and 1% respectively. 48 h later, cells at 95% confluence were infected with 1×10^9 genomes per well. After 4 h incubation (37° C., 5% CO2), medium was removed and replaced with 1 ml of fresh medium without grown factors after two washes with and without gemcitabine or cidofovir at the indicated concentrations. 72 h later, at day 3 of treatment, supernatants were harvested and frozen at −80° C. and medium was replaced with fresh medium without grown factors and with the indicated concentrations of gemcitabine or cidofovir. After 48 h incubation, at day 5 of treatment, cell culture supernatants were harvested and frozen at −80° C. […]

[5] = tested on: T antigen; experiment: Immunofluorescence of T antigen expression in infected RPTEC cells; format: cell-based, BK virus; conditions: 5 days of treatment
Protocol: as §8

[6] = tested on: RPTEC primary cells; experiment: Cytotoxicity / cell growth by LDH activity in RPTEC primary cells; format: cell-based, human
Protocol: as §1, §7
The quantity of LDH was measured in cell culture supernatants and cells from every wells used for the quantification of virus replication including infected and non-infected wells and in presence or not of gemcitabine at the end of the test period according to the manufacturer's protocol. Absorbance at 492 nm (sample) and at 620 nm (background) was recorded 30 min after addition of the reaction mixture. Medium alone served as blank. Measure of LDH activity in culture supernatants was used to monitoring cell lysis and the activity in cell lysates to monitoring cell viability and mass at 72 and 120 h p.i

Compound	concentration range repressing BKV replication ([1]; RPTEC, same conditions as gemcitabine)	IC50 ([2]; Betapolyomavirus hominis, 48 h, BKV Dunlop, two days of treatment, read-out: IC50, inhibition of viral replication) [nM]	IC90 ([2]; Betapolyomavirus hominis, 48 h, BKV Dunlop, two days of treatment, read-out: IC90, inhibition of viral replication) [nM]	inhibition of viral replication ([2]; concentration as low as 10 nM, in two days)	IC50 ([1]; Betapolyomavirus hominis, RPTEC, BKV Dunlop, read-out: IC50, inhibition of viral replication) [nM]	IC90 ([1]; Betapolyomavirus hominis, RPTEC, BKV Dunlop, read-out: IC90, inhibition of viral replication) [nM]	inhibitory effect on viral replication, 5 days versus 3 days of treatment ([1]; RPTEC)	concentrations repressing BKV replication ([1]; summary: two different cellular models, including primary renal epithelial cells) [nM]	IC50 specificity index [3]	expression of the late capsid protein VP-1 [4]	expression of the early protein antigen T [5]	toxicity [6]	effect on cellular growth (LDH) at higher concentrations ([6]; RPTEC, 50 nM range)	effect on cellular growth measured by the intracellular LDH activity ([6]; infected RPTEC, effective antiviral concentrations (up to 10 nM), day 5)
Nc1ccn(C[C@@H](CO)OCP(=O)(O)O)c(=O)n1 [cidofovir]	μM range	–	–	–	–	–	–	–	–	–	–	–	–	–
Nc1ccn(C2OC(CO)C(O)C2(F)F)c(=O)n1 (centres unmarked) [gemcitabine, 4-amino-1-[3,3-difluoro-4-hydroxy-5-(hydroxymethyl)tetrahydrofuran-2-yl]-1H-pyrimidin-2-one]	–	1.5 to 2	2.5 to 5	totally inhibited	~10	~50	higher after 5 days than after 3 days	~10	≥ 10	inhibited	inhibited	no toxicity was observed	seemed to slow down	could suppress the inhibitory effect of viral infection on the cellular growth
